Measured values reported in patent publication US20240018118A1, “TRICYCLIC COMPOUNDS TO DEGRADE NEOSUBSTRATES FOR MEDICAL THERAPY” (C 4 Therapeutics, Inc., priority 2020, published 2024).
Where two headings read alike, the source gives them in different places.

What was measured:
SALL4 = SALL4 (Homo sapiens, UniProt Q96SW2+Q9UJQ4); assay: HiBiT degradation assay, KELLY.2 (SALL4-HiBiT) cells; type: cell-based; settings: for DC50: KELLY.2 cells, 6 hours; for Emax: read-out: HiBiT-Degradation KELLY.2 SALL4 6 hours Emax, KELLY.2 cells
Chain of SALL4 (Q9UJQ4 whole entry): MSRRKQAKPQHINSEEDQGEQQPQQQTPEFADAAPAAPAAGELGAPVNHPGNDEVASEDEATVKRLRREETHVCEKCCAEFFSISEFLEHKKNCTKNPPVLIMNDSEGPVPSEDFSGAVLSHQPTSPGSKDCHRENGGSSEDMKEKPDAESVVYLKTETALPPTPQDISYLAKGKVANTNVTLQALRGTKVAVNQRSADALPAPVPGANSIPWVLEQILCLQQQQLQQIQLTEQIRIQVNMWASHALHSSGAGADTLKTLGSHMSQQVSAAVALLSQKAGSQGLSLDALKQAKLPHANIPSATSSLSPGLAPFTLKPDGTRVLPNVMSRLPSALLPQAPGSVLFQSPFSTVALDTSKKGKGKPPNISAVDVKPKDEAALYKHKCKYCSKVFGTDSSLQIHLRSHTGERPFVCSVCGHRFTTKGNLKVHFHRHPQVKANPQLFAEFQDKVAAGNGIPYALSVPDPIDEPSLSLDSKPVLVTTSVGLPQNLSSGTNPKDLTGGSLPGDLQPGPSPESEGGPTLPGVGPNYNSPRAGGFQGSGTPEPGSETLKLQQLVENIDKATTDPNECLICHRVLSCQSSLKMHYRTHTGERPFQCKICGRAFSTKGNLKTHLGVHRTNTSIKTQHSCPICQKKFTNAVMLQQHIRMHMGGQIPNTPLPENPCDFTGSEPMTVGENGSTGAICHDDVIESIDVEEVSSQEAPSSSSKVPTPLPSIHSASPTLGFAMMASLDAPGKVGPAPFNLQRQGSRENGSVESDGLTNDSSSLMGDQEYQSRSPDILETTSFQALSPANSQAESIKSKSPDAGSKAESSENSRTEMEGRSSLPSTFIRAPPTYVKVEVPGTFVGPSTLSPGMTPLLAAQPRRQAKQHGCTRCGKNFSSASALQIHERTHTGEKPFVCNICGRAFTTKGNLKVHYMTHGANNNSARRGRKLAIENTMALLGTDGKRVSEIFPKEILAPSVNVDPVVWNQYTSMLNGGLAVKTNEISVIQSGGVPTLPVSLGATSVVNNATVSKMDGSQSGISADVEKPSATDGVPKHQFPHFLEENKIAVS
Chain of SALL4 (Q96SW2 whole entry): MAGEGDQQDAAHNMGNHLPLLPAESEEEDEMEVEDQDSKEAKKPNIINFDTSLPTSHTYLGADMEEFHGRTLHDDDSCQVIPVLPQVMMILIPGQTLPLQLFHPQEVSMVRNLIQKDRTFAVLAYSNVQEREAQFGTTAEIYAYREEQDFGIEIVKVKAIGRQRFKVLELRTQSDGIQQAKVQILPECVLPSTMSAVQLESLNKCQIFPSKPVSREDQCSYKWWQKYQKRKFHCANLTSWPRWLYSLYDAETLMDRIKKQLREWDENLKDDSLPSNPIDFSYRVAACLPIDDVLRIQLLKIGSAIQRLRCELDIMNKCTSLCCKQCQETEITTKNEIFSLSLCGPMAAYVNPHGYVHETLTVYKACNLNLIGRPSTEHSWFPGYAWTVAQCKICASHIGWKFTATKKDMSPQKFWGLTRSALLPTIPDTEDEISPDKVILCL
Chain of SALL4 (Q16531 2-1140 partner limits assumed): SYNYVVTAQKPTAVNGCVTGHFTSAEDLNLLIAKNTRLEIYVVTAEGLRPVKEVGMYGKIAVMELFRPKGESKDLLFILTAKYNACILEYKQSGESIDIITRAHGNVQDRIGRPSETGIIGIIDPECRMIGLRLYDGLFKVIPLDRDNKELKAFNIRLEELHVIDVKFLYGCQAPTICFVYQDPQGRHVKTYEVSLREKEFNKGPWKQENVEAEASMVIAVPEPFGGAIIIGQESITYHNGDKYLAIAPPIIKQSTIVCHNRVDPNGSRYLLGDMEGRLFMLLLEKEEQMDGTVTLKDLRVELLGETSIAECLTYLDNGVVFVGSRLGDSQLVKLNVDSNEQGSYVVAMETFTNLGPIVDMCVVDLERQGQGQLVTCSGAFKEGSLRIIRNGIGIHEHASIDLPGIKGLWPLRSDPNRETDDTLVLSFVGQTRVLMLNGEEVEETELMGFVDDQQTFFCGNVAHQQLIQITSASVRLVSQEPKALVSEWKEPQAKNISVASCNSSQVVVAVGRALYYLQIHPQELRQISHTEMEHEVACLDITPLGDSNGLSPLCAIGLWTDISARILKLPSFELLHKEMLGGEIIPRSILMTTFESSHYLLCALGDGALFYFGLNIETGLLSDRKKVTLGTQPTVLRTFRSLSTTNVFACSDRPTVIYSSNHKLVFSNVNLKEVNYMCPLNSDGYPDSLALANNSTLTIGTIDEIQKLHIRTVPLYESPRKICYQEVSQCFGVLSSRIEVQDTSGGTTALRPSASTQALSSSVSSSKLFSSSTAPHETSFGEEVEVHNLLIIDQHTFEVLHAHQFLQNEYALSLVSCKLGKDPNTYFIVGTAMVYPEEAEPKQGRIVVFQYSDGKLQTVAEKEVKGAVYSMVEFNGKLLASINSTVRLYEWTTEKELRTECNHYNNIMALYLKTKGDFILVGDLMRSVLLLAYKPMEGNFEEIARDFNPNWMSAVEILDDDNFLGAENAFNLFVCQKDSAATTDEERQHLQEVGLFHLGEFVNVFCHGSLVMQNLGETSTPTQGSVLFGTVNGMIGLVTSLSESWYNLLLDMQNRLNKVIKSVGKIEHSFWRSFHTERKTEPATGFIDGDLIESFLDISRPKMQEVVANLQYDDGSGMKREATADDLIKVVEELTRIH
Description: RPMI 1640 Medium without phenol red, fetal bovine serum (FBS), and Sodium Pyruvate (100 mM) were purchased from Gibco (Grand Island, NY, USA). Nano-Glo® HiBiT Lytic Assay System was purchased from Promega (Madison, WI, USA). […] Cell culture flasks and 384-well microplates were acquired from VWR (Radnor, PA, USA).
(§1) SALL4 degradation was determined based on quantification of luminescent signal using Nano-Glo® HiBiT Lytic Assay kit. Test compounds were added to the 384-well plate from a top concentration of 10 μM with 11 points, half log titration in duplicates. KELLY.2 cells were added into 384-well plates at a cell density of 6000 cells per well. The plates were kept at 37° C. with 5% CO2 for 6 hours. The cells treated in the absence of the test compound were the negative control and the cells without Nano-Glo® HiBiT Lytic reagent were the positive control. After 6-hour incubation, Nano-Glo® HiBiT Lytic Assay reagents were added to the cells. Luminescence was acquired on EnVision™ Multilabel Reader (PerkinElmer, Santa Clara, CA, USA).

CRBN = molecular target: T1, CRBN (Homo sapiens, UniProt Q96SW2); assay: NanoBRET CRBN binding, 293T.116 cells; settings: 2 hours
T1 construct: expressed in transfected cells; host or cells: 293T (line named 293T.116)
T1 sequence (Q96SW2 whole entry): as the sequence (Q96SW2 whole entry) above
T1 sequence (Q16531 2-1140 partner limits assumed): as the sequence (Q16531 2-1140 partner limits assumed) above

GSPT1 = GSPT1 (Homo sapiens, UniProt P15170+Q96SW2); assay: HiBiT degradation assay, 293T.114 cells, GSPT1; type: cell-based; settings: for DC50: read-out: HiBiT-Degradation 293T.114 GSPT1 6 hours DC50
Chain of GSPT1 (P15170 whole entry): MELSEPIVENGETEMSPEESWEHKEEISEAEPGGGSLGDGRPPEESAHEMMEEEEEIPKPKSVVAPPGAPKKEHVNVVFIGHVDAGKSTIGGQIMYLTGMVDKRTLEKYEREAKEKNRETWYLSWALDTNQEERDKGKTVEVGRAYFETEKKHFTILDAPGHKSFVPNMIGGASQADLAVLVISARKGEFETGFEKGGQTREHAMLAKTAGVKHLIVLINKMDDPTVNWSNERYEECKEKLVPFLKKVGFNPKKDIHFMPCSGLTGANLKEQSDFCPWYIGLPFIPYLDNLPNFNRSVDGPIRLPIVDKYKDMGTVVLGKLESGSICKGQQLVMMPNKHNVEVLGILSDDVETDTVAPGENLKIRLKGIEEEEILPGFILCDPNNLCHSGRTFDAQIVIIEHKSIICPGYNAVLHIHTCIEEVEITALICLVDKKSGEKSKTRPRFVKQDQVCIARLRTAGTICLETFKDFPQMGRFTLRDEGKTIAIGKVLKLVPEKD
Chain of GSPT1 (Q96SW2 whole entry): as the sequence (Q96SW2 whole entry) above
Chain of GSPT1 (Q16531 2-1140 partner limits assumed): as the sequence (Q16531 2-1140 partner limits assumed) above
Description: as §1, with “GSPT1” for “SALL4”, “5” for “11”, “3-fold” for “half log”, “quadruplicates. 293T.114” for “duplicates. KELLY.2”, “The plates were kept at 37° C. with 5% CO2 for 6 hours.” left out, “After 6-hour incubation, Nano-Glo® HiBiT Lytic Assay reagents were added to the cells.” left out

IKZF1 = molecular target: T2, IKZF1 (Homo sapiens, UniProt Q13422+Q96SW2); assay: HiBiT degradation assay, NCIH929.11 (HiBiT-IKZF1) cells; type: cell-based; settings: for DC50: NCHI929.11 cells, 6 hours; for Emax: read-out: HiBiT-Degradation NCHI929.11 IKZF1 6 hours Emax, NCHI929.11 cells
T2 construct: endogenously expressing IKZF1 with HiBiT fusion tag via CRISPR; endogenous in cells; host or cells: NCIH929.11 (CRISPR knock-in)
T2 sequence (Q13422 whole entry, the tested form may be a part): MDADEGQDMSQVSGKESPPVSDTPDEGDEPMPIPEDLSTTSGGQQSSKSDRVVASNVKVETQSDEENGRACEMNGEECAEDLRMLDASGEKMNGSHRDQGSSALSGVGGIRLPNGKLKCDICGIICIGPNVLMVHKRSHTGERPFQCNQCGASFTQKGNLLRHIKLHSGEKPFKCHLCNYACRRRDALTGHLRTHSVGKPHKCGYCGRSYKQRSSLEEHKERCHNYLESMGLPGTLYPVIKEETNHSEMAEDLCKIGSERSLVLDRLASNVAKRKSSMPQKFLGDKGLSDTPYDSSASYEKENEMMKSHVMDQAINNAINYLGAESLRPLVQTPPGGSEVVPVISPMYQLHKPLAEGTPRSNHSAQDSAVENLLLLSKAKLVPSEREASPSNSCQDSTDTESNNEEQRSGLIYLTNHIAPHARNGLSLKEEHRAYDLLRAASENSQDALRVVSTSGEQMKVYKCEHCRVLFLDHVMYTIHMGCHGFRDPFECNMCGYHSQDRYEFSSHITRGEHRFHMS
T2 sequence (Q96SW2 whole entry, the tested form may be a part): as the sequence (Q96SW2 whole entry) above
T2 sequence (Q16531 2-1140 partner limits assumed): as the sequence (Q16531 2-1140 partner limits assumed) above
Description: RPMI no-phenol red medium and fetal bovine serum (FBS) were purchased from Gibco (Grand Island, NY, USA). Nano-Glo® HiBiT Lytic Assay System was purchased from Promega (Madison, WI, USA). NCIH929.11 (HiBiT-IKZF1) cell line was generated in house, endogenously expressing IKZF1 with HiBiT fusion tag via CRISPR. Cell culture flasks and 384-well microplates were acquired from VWR (Radnor, PA, USA).
IKZF 1 degradation was determined based on quantification of luminescent signal using Nano-Glo® HiBiT Lytic Assay kit. Test compounds were added to the 384-well plate from a top concentration of 10 μM with 11 points, half-log titration in duplicates. NCIH929.11 cells expressing HiBiT-tagged TKZF1 were added into 384-well plates in RPMI medium containing 10% FBS and 0.05 mM 2-mercaptoethanol at a cell density of 15000 cells per well. The plates were kept at 37° C. with […] for 6 hours. Cells treated in the absence of the test compound were the negative control and wells containing media only were the positive control. After 6-hour incubation, Nano-Glo® HiBiT Lytic Assay reagents were added to the designated wells. Luminescence was acquired on EnVision™ Multilabel Reader (PerkinElmer, Santa Clara, CA, USA).

[1] = read-out: GSPT1 Emax @ 10 μM 24 Hours, 24 hours
[2] = read-out: HiBiT-Degradation 293T.114 GSPT1 6 hours Emax, 293T.114 cells, 6 hours

| DC50 (SALL4) [nM] | Emax (SALL4) [%] | IC50 (CRBN) [nM] | DC50 (GSPT1; 293T.114 cells, 6 hours) [nM] | Emax (GSPT1; [1]) [%] | Emax (GSPT1; [2]) [%] | DC50 (IKZF1) [nM] | Emax (IKZF1) [%] | Structure (SMILES) |
| --- | --- | --- | --- | --- | --- | --- | --- | --- |
| > 10000 | 60 to 95 | < 100 | > 10000 | < 45 | 60 to 95 | > 10000 | 60 to 95 | CCOc1ccc(Cc2ccc3c4c(cccc24)N(C2CCC(=O)NC2=O)C3=O)c(F)c1 (stereo not shown) [Compound 60, 3-(5-(4-ethoxy-2-fluorobenzyl)-2-oxobenzo[cd]indol-1(2H)-yl)piperidine-2,6-dione] |
| 100 to 1000 | < 45 | < 100 | > 10000 | < 45 | 45 to 60 | 100 to 1000 | < 45 | CCOC(=O)c1ccc(Cc2ccc3c4c(cccc24)N(C2CCC(=O)NC2=O)C3=O)cc1 (stereo not shown) [Compound 61, ethyl 4-((1-(2,6-dioxopiperidin-3-yl)-2-oxo-1,2-dihydrobenzo[cd]indol-5-yl)methyl)benzoate] |
| > 10000 | 60 to 95 | < 100 | > 10000 | < 45 | 60 to 95 | > 10000 | 60 to 95 | CCOC(=O)c1cccc(Cc2ccc3c4c(cccc24)N(C2CCC(=O)NC2=O)C3=O)c1 (stereo not shown) [Compound 62, ethyl 3-((1-(2,6-dioxopiperidin-3-yl)-2-oxo-1,2-dihydrobenzo[cd]indol-5-yl)methyl)benzoate] |
|  |  |  |  | < 45 |  |  |  | O=C1CCC(N2C(=O)c3ccc(CN4CC(Oc5ccccc5)C4)c4cccc2c34)C(=O)N1 (stereo not shown) [Compound 63, 3-(2-oxo-5-((3-phenoxyazetidin-1-yl)methyl)benzo[cd]indol-1(2H)-yl)piperidine-2,6-dione] |
| < 100 | < 45 | < 100 | > 10000 | < 45 | 45 to 60 | > 10000 | 45 to 60 | O=C1CCC(N2C(=O)c3ccc(CNC(=O)C(F)(F)c4ccc(Cl)cc4)c4cccc2c34)C(=O)N1 (stereo not shown) [Compound 64, 2-(4-chlorophenyl)-N-[[1-(2,6-dioxo-3-piperidyl)-2-oxo-benzo[cd]indol-5-yl]methyl]-2,2-difluoro-acetamide] |
| < 100 | < 45 |  | > 100 |  | 60 to 95 |  |  | CC(NC(=O)c1ccc2c3c(ccnc13)N(C1CCC(=O)NC1=O)C2=O)c1ccccc1 (stereo not shown) [Compound 185, 27-(2,6-dioxo-3-piperidyl)-20-oxo-N-(1-phenylethyl)-24,27-diazatricyclododeca-6,8(15),9(24),13(16),14(17)-pentaene-14-carboxamide] |
| > 10000 | 60 to 95 |  | > 10000 |  | 60 to 95 | > 10000 | 60 to 95 | COC(=O)c1ccc(Nc2ccc3cccc4c3c2C(=O)N4C2CCC(=O)NC2=O)cc1 (stereo not shown) [Compound 186, Methyl 4-[[1-(2,6-dioxo-3-piperidyl)-2-oxo-benzo[cd]indol-3-yl]amino]benzoate] |
| < 100 | < 45 |  | > 10000 |  | 60 to 95 | > 10000 | 60 to 95 | O=C1CCC(N2C(=O)c3ccc(N4CCc5ccccc54)c4cccc2c34)C(=O)N1 (stereo not shown) [Compound 209, 3-(5-indolin-1-yl-2-oxo-benzo[cd]indol-1-yl)piperidine-2,6-dione] |
|  |  |  | > 100 |  | 60 to 95 |  |  | CN(c1ccc2c3c(cccc13)N(C1CCC(=O)NC1=O)C2=O)C1CCN(Cc2ccccc2)C1 (stereo not shown) [Compound 220] |

The remaining lines, values behind:

| Structure (SMILES) | DC50 (SALL4) [nM] | Emax (SALL4) [%] | IC50 (CRBN) [nM] | DC50 (GSPT1; 293T.114 cells, 6 hours) [nM] | Emax (GSPT1; [1]) [%] | Emax (GSPT1; [2]) [%] | DC50 (IKZF1) [nM] | Emax (IKZF1) [%] |
| --- | --- | --- | --- | --- | --- | --- | --- | --- |
| O=C1CCC(N2C(=O)c3ccc(C4(F)CCN(Cc5ccccc5)CC4)c4nccc2c34)C(=O)N1 (stereo not shown) [Compound 81, 3-[18-(1-benzyl-4-fluoro-4-piperidyl)-24-oxo-27,30-diazatricyclododeca-5(17),6(18),7(19),8(27),20-pentaen-30-yl]piperidine-2,6-dione] | < 100 | < 45 |  | > 100 |  | 60 to 95 |  |  |
| Cc1cc(C)nc(-c2ccc3c4c(cccc24)N(C2CCC(=O)NC2=O)C3=O)n1 (stereo not shown) [Compound 87, 3-[5-(4,6-dimethylpyrimidin-2-yl)-2-oxo-benzo[cd]indol-1-yl]piperidine-2,6-dione] | < 100 | < 45 |  | > 100 |  | 60 to 95 |  |  |
| CN1CC(c2ccc3c4c(cccc24)N(C2CCC(=O)NC2=O)C3=O)C1 (stereo not shown) [Compound 90, 3-[5-(1-methylazetidin-3-yl)-2-oxo-benzo[cd]indol-1-yl]piperidine-2,6-dione] | < 100 | < 45 |  | > 100 |  | 60 to 95 |  |  |
| O=C1CCC(N2C(=O)c3cc(CNCc4ccco4)cc4cccc2c34)C(=O)N1 (stereo not shown) [Compound 160] |  |  |  | > 10000 |  | 45 to 60 |  |  |
| Cc1ccc(CN2CCC(c3ccc4c5c(cccc35)N(C3CCC(=O)NC3=O)C4=O)CC2)cc1F (stereo not shown) [Compound 176] | > 10000 | 60 to 95 | < 100 | > 10000 |  | 60 to 95 |  |  |
| COc1ncc(CN2CCC(c3ccc4c5c(cccc35)N(C3CCC(=O)NC3=O)C4=O)CC2)cn1 (stereo not shown) [Compound 177] | > 10000 | 60 to 95 | < 100 | > 10000 |  | 60 to 95 |  |  |
| CC(C)(C)OC(=O)N1CCC(n2cc(Cc3ccc4c5c(cccc35)C(=O)N4[C@H]3CCC(=O)NC3=O)cn2)CC1 [Compound 197, tert-butyl 4-[4-[[1-[(3S)-2,6-dioxo-3-piperidyl]-2-oxo-benzo[cd]indol-6-yl]methyl]pyrazol-1-yl]piperidine-1-carboxylate] | < 100 | < 45 |  | > 10000 |  | 60 to 95 | < 100 | < 45 |
| N#CC1(C(=O)N2CCC(n3cc(Cc4ccc5c6c(cccc46)C(=O)N5C4CCC(=O)NC4=O)cn3)CC2)CCC1 (stereo not shown) [Compound 200, 1-[4-[4-[[1-(2,6-dioxo-3-piperidyl)-2-oxo-benzo[cd]indol-6-yl]methyl]pyrazol-1-yl]piperidine-1-carbonyl]cyclobutanecarbonitrile] | < 100 | < 45 |  | > 10000 |  | > 95 |  |  |
| O=C1CCC(N2C(=O)c3cccc4c(Cc5cnn(C6CCN(C(=O)C7(C(F)(F)F)CCC7)CC6)c5)ccc2c34)C(=O)N1 (stereo not shown) [Compound 201] | < 100 | < 45 | < 100 | > 10000 |  | > 95 |  |  |
| CC1(n2cc(Cc3ccc4c5c(cccc35)C(=O)N4C3CCC(=O)NC3=O)cn2)CCN(C(=O)C2(C(F)(F)F)CC2)CC1 (stereo not shown) [Compound 203] | < 100 | < 45 | < 100 | > 10000 |  | 60 to 95 |  |  |
| CC1(n2cc(Cc3ccc4c5c(cccc35)C(=O)N4C3CCC(=O)NC3=O)cn2)CCN(C(=O)C2(C#N)CCCCC2)CC1 (stereo not shown) [Compound 204] | < 100 | < 45 | < 100 | > 10000 |  | 60 to 95 |  |  |
| CC1(n2cc(Cc3ccc4c5c(cccc35)C(=O)N4C3CCC(=O)NC3=O)cn2)CCN(C(=O)C2CC2)CC1 (stereo not shown) [Compound 205] | < 100 | < 45 | < 100 | > 10000 |  | 60 to 95 |  |  |
| CC1(n2cc(Cc3ccc4c5c(cccc35)C(=O)N4C3CCC(=O)NC3=O)cn2)CCN(c2ncccc2F)CC1 (stereo not shown) [Compound 208, 3-[6-[[1-[1-(3-fluoro-2-pyridyl)-4-methyl-4-piperidyl]pyrazol-4-yl]methyl]-2-oxo-benzo[cd]indol-1-yl]piperidine-2,6-dione] | < 100 | < 45 |  | > 10000 |  | 60 to 95 |  |  |
